# Experimental data reported in patent US4017611A, “Control of insects with 3-hydroxymethacrylic acid methyl ester dimethylthionophosphate” (priority 1970, dated 1977).
# Tested on: adult houseflies
# Assay: Gas action against adult houseflies
# Assay type: in vivo, Musca domestica (housefly)
# Details: 10 mg active substance, 2 liter glass cylinder
# Description: Using a pipette 10 mg of active substance were placed on a watch glass which was then covered with a wire mesh and placed in a 2 liter glass cylinder. Immediately thereafter 30 houseflies were introduced into the container which was then sealed.
# A comparative test between compound 1 and PHOSDRIN (Registered Trade Mark) carried out according to this method gave the following mortality periods in minutes for 10%, 50% and 100% kill of the test animals.
structure (smiles),measurement,setting,value
"COC(=O)C(C)=COP(=S)(OC)OC [Compound I, 3-hydroxymethacrylic acid methyl ester dimethylthionophosphate]",Mortality time for 10% of the houseflies,10% kill,5 min
same,Mortality time for 50% of the houseflies,50% kill,6 min
same,Mortality time for 100% of the houseflies,100% kill,25 min
